According to ChEMBL document CHEMBL2346618, “Synthesis and evaluation against hepatitis C virus of 7-deaza analogues of 2'-C-methyl-6-O-methyl guanosine nucleoside and L-Alanine ester phosphoramidates” (Bioorg Med Chem Lett, 2013):

Assays:
[1] = (§1) Cytotoxicity against human HuH7 cells; format: cell-based, Huh-7; settings: HuH7 cells
[2] = system: Hepatitis C virus; assay: Antiviral activity against Hepatitis C virus assessed as inhibition of viral replication; format: functional, organism-based, Hepacivirus hominis
[3] = system: Huh-7; assay: Prodrug activation in human HuH7 cell lysate assessed as formation of ((2R,3R,4R,5R)-5-(2-amino-4-methoxy-7H-pyrrolo[2,3-d]pyrimidin-7-yl)-3,4-dihydroxy-4-methyltetrahydrofuran-2-yl)methyl dihydrogen phosphate by NMR assay; format: cell-based
[4] = Prodrug activation in trizma buffer assessed as formation of (2S)-2-((((2R,3R,4R,5R)-5-(2-amino-4-methoxy-7H-pyrrolo[2,3-d]pyrimidin-7-yl)-3,4-dihydroxy-4-methyltetrahydrofuran-2-yl)methoxy)(hydroxy)phosphorylamino)propanoic acid by NMR assay in presence of carboxypeptidase Y
[5] = system: Huh-7; assay: Prodrug activation in human HuH7 cell lysate assessed as formation of ((2R,3R,4R,5R)-5-(2-amino-4-methoxy-7H-pyrrolo[2,3-d]pyrimidin-7-yl)-3,4-dihydroxy-4-methyltetrahydrofuran-2-yl)methyl dihydrogen phosphate after 48 hrs by NMR assay; format: cell-based; settings: huh-7, 48 h
[6] = Prodrug activation in phosphate buffer at pH 7.4 after 4 hrs by UV analysis in presence of calf adenosine deaminase; settings: pH 7.4, 4 h
[7] = system: Huh-7; assay: as §1; format: cell-based; settings: huh-7

Row | Compound | CC50 [1] [µM] | EC50 ([2]; Hepatitis C virus) [µM] | further results
1 | COc1nc(N)nc2c1ncn2[C@@H]1O[C@H](COP(=O)(N[C@@H](C)C(=O)OCc2ccccc2)Oc2cccc3ccccc23)[C@@H](O)[C@@]1(C)O (some centres undefined) | 11 | 0.02 | 
2 | COc1nc(N)nc2c1ncn2[C@@H]1O[C@H](COP(=O)(N[C@@H](C)C(=O)OC2CCCCC2)Oc2cccc3ccccc23)[C@@H](O)[C@@]1(C)O (some centres undefined) | 6 | 0.03 | 
3 | COc1nc(N)nc2c1ccn2[C@@H]1O[C@H](COP(=O)(O)O)[C@@H](O)[C@@]1(C)O |  |  | Drug metabolism [3]: Active
4 | COc1nc(N)nc2c1ccn2[C@@H]1O[C@H](COP(=O)(N[C@@H](C)C(=O)OCc2ccccc2)Oc2cccc3ccccc23)[C@@H](O)[C@@]1(C)O (some centres undefined) | 27 | 27.3 | 
5 | COc1nc(N)nc2c1ccn2[C@@H]1O[C@H](COP(=O)(N[C@@H](C)C(=O)OCC(C)(C)C)Oc2cccc3ccccc23)[C@@H](O)[C@@]1(C)O (some centres undefined) | 27 | 12.9 | Drug metabolism [4]: Active; Drug metabolism [5]: Not Active
6 | COc1nc(N)nc2c1ccn2[C@@H]1O[C@H](CO)[C@@H](O)[C@@]1(C)O | > 100 | > 100 | Stability [6]: Stable
7 | COc1nc(N)nc2c1ccn2[C@@H]1O[C@H](COP(=O)(N[C@@H](C)C(=O)OC2CCCCC2)Oc2cccc3ccccc23)[C@@H](O)[C@@]1(C)O (single isomer, unassigned; fast eluting) |  |  | CC50 [7]: 18 µM; EC50 [2]: 13.3 µM
8 | COc1nc(N)nc2c1ccn2[C@@H]1O[C@H](COP(=O)(N[C@@H](C)C(=O)OC2CCCCC2)Oc2cccc3ccccc23)[C@@H](O)[C@@]1(C)O (single isomer, unassigned; slow eluting) | 13 | 8.9 | 
9 | COc1nc(N)nc2c1ncn2[C@@H]1O[C@H](CO)[C@@H](O)[C@@]1(C)O [BETA-2'-C-METHYL-6-O-METHYL GUANOSINE] | > 100 | 3 | 
10 | C[C@@]1(O)[C@H](O)[C@@H](CO)O[C@H]1n1ccc2c(N)ncnc21 [BETA-2'-C-METHYL-7-DEAZA-ADENOSINE] | > 100 | 0.25 | 
11 | COc1nc(N)nc2c1ncn2[C@@H]1O[C@H](COP(=O)(N[C@@H](C)C(=O)OCC(C)(C)C)Oc2cccc3ccccc23)[C@@H](O)[C@@]1(C)O (some centres undefined) [BMS-986094] | 6 | 0.01 | 
